The target in one assay is T1, ER (Homo sapiens, UniProt P03372).
T1 construct: host or cells: T47D and MCF7 human breast cancer cells
T1 sequence (P03372 1-595): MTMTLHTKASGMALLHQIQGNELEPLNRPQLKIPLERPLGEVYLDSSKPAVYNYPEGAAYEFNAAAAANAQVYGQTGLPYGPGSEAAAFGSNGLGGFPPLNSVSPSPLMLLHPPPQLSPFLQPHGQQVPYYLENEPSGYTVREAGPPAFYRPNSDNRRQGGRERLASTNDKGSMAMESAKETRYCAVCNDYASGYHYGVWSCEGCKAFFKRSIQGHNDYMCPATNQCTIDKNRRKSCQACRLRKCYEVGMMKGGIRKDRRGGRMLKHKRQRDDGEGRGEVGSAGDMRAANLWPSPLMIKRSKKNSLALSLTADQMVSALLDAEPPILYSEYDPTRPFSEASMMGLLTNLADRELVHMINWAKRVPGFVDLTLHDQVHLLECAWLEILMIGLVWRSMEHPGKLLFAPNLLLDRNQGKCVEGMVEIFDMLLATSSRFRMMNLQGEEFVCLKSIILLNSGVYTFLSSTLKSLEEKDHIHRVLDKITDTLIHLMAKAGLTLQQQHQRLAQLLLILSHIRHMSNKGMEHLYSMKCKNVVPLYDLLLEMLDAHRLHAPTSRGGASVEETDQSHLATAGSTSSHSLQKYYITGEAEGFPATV
The assay can be described thus: ER degradation activity, in-cell western blot analysis in T47D cells. The class given is cell-based. The settings on record: 16 hours, Table A does not say which cell line (T47D or MCF7), read-out: Potency (DC50). Here is the method: ER degradation activity was evaluated in the human breast cancer cell line T47D and MCF7 purchased from the American Type Culture Collection (ATCC), Manassas, VA, and maintained and cultured in Dulbecco's Modified Eagle's medium (DMEM) containing 10% fetal bovine serum, 1 unit/ml of penicillin and 1 μg/ml of streptomycin.
The protocol for the in-cell western blot analysis: a. seed cells in black-sided/clear bottom 96- or 384-well plates at 40,000 or 10,000 cells/well, overnight; b. add diluted compounds (final 0.5% DMSO), 16 hours. […] RT 2 h, gentle shaking. Negative control: cells plus secondary antibodies (no primary antibodies); e. wash ×4 with PBS+0.05-0.1% Tween 20, gentel shaking; f. anti-rabbit-680 and anti-mouse-800 (both 1:1000 in LiCor block+0.05% Tween20, RT 1 h, gentle shaking, no light. LI-COR: 0.2% to reduce background; g. wash×4 with PBS+0.05% Tween 20, gental shaking; h. add 100 μL or 25 μL of PBS to each well and read on CLX plate reader. The relative ER percentage in treated cells were obtained by comparing the values of treated wells to those in untreated and DMSO-treated wells as 100%.
Broadly, the DC50 is the concentration at which degradation of the target reaches its halfway point. As for `O=C1CCC(N2C(=O)c3cc4c(cc3C2=O)CN(CC(=O)N2CCCC(Oc3ccc([C@@H]5c6ccc(O)cc6CC[C@@H]5c5ccccc5)cc3)C2)C4)C(=O)N1` (mixture of isomers) [E 21, Rac-2-(2,6-dioxopiperidin-3-yl)-6-(2-(3-(4-((1R,2S)-6-hydroxy-2-phenyl-1,2,3,4-tetrahydronaphthalen-1-yl)phenoxy)piperidin-1-yl)-2-oxoethyl)-6,7-dihydropyrrolo[3,4-f]isoindole-1,3(2H,5H)-dione], the DC50 is more than 0.1 µM. The same measure, in the same setting: in the case of `C[C@@H]1Cc2cc(O)ccc2[C@@H](c2c(F)cc(N3CCC4(CCN(C(=O)CN5Cc6cc7c(cc6C5)C(=O)N(C5CCC(=O)NC5=O)C7=O)CC4)CC3)cc2F)N1CC(F)F` (stereo partly drawn) [E 320, 6-(2-(9-(4-((1S,3R)-2-(2,2-difluoroethyl)-6-hydroxy-3-methyl-1,2,3,4-tetrahydroisoquinolin-1-yl)-3,5-difluorophenyl)-3,9-diazaspiro[5.5]undecan-3-yl)-2-oxoethyl)-2-(2,6-dioxopiperidin-3-yl)-6,7-dihydropyrrolo[3,4-f]isoindole-1,3(2H,5H)-dione] it was less than 0.01 µM. Still for that read-out and setting: as for `O=C1CCC(N2C(=O)c3cc4c(cc3C2=O)CN(CC(=O)N2CCC3(CCN(c5ccc([C@@H]6c7ccc(O)cc7CC[C@@H]6c6ccccc6)cc5)CC3)C2)C4)C(=O)N1` (mixture of isomers) [E 7, rac-2-(2,6-dioxopiperidin-3-yl)-6-(2-(8-(4-((1R,2S)-6-hydroxy-2-phenyl-1,2,3,4-tetrahydronaphthalen-1-yl)phenyl)-2,8-diazaspiro[4.5]decan-2-yl)-2-oxoethyl)-6,7-dihydropyrrolo[3,4-f]isoindole-1,3(2H,5H)-dione], the figure is 0.01 to 0.1 µM; as for `C[C@@H]1Cc2c([nH]c3ccccc23)[C@@H](c2ccc(N3CCC4(CCN(CC(=O)N5Cc6cc7c(cc6C5)C(=O)N(C5CCC(=O)NC5=O)C7=O)CC4)CC3)cn2)N1CC(F)F` (stereo partly drawn) [E 292, 6-(2-(9-(6-((1S,3R)-2-(2,2-difluoroethyl)-3-methyl-2,3,4,9-tetrahydro-1H-pyrido[3,4-b]indol-1-yl)pyridin-3-yl)-3,9-diazaspiro[5.5]undecan-3-yl)acetyl)-2-(2,6-dioxopiperidin-3-yl)-6,7-dihydropyrrolo[3,4-f]isoindole-1,3(2H,5H)-dione], more than 0.1 µM.

Regarding `C[C@H]1Cc2c([nH]c3ccccc23)[C@H](c2c(F)cc(N3CC4(CCCN(C(=O)CN5Cc6cc7c(cc6C5)C(=O)N(C5CCC(=O)NC5=O)C7=O)C4)C3)cc2F)N1CC(F)F` (stereo in doubt) [E 80, 6-(2-(2-(4-((1S,3S)-2-(2,2-difluoroethyl)-3-methyl-2,3,4,9-tetrahydro-1H-pyrido[3,4-b]indol-1-yl)-3,5-difluorophenyl)-2,6-diazaspiro[3.5]nonan-6-yl)-2-oxoethyl)-2-(2,6-dioxopiperidin-3-yl)-6,7-dihydropyrrolo[3,4-f]isoindole-1,3(2H,5H)-dione], the DC50 fell in the range of 0.01 to 0.1 µM. Turning to `O=C1CCC(N2Cc3cc4c(cc3C2=O)CN(C(=O)CN2CC3(C2)CN(c2ccc(C5=C(c6ccc(F)cc6)CCCc6cc(O)ccc65)cc2)C3)C4)C(=O)N1` (stereo not drawn) [E 48], the half-maximal degradation concentration (DC50) was in the range of 0.01 to 0.1 µM. Still for that read-out and setting: in the case of `O=C1CCC(N2C(=O)c3cc4c(cc3C2=O)CN(CC2CCC(NC3CN(c5ccc([C@@H]6c7ccc(O)cc7CC[C@@H]6c6ccccc6)cc5)C3)CC2)C4)C(=O)N1` (stereo partly drawn) [E 337, 2-(2,6-dioxopiperidin-3-yl)-6-((4-((1-(4-((1R,2S)-6-hydroxy-2-phenyl-1,2,3,4-tetrahydronaphthalen-1-yl)phenyl)azetidin-3-yl)amino)cyclohexyl)methyl)-6,7-dihydropyrrolo[3,4-f]isoindole-1,3(2H,5H)-dione] it was more than 0.1 µM. For `C[C@H]1CC2(CCN(CC(=O)N3Cc4cc5c(cc4C3)C(=O)N(C3CCC(=O)NC3=O)C5=O)CC2)CN1c1ccc([C@@H]2c3ccc(O)cc3CC[C@@H]2c2ccccc2)cc1` (mixture of isomers) [E 144, Rac-2-(2,6-dioxopiperidin-3-yl)-6-(2-((S)-2-(4-((1R,2S)-6-hydroxy-2-phenyl-1,2,3,4-tetrahydronaphthalen-1-yl)phenyl)-3-methyl-2,8-diazaspiro[4.5]decan-8-yl)acetyl)-6,7-dihydropyrrolo[3,4-f]isoindole-1,3(2H,5H)-dione], the half-maximal degradation concentration (DC50) was more than 0.1 µM. Consider `O=C1CCC(N2C(=O)c3cc4c(cc3C2=O)CN(CC2(F)CCN(CC3CN(c5ccc([C@@H]6c7ccc(O)cc7CC[C@@H]6c6ccccc6)cc5)C3)CC2)C4)C(=O)N1` (stereo partly drawn) [E245, 2-(2,6-dioxopiperidin-3-yl)-6-((4-fluoro-1-((1-(4-((1R,2S)-6-hydroxy-2-phenyl-1,2,3,4-tetrahydronaphthalen-1-yl)phenyl)azetidin-3-yl)methyl)piperidin-4-yl)methyl)-6,7-dihydropyrrolo[3,4-f]isoindole-1,3(2H,5H)-dione], for which the DC50 was more than 0.1 µM. Still for that read-out and setting: as for `C[C@@H]1Cc2c([nH]c3ccccc23)[C@@H](c2c(F)cc(N3CCC4(CC3)CN(C(=O)CN3Cc5cc6c(cc5C3)C(=O)N(C3CCC(=O)NC3=O)C6=O)C4)cc2F)N1CC(F)(F)F` (stereo partly drawn) [E 227, 6-(2-(7-(3,5-difluoro-4-((1R,3R)-3-methyl-2-(2,2,2-trifluoroethyl)-2,3,4,9-tetrahydro-1H-pyrido[3,4-b]indol-1-yl)phenyl)-2,7-diazaspiro[3.5]nonan-2-yl)-2-oxoethyl)-2-(2,6-dioxopiperidin-3-yl)-6,7-dihydropyrrolo[3,4-f]isoindole-1,3(2H,5H)-dione], the figure is 0.01 to 0.1 µM; as for `C[C@@H]1Cc2cc(O)ccc2[C@@H](c2c(F)cc(N3CCC(CN4CCC(N5Cc6cc7c(cc6C5)C(=O)N(C5CCC(=O)NC5=O)C7=O)CC4)CC3)cc2F)N1CC(F)F` (stereo partly drawn) [E 270, 6-(1-((1-(4-((1S,3R)-2-(2,2-difluoroethyl)-6-hydroxy-3-methyl-1,2,3,4-tetrahydroisoquinolin-1-yl)-3,5-difluorophenyl)piperidin-4-yl)methyl)piperidin-4-yl)-2-(2,6-dioxopiperidin-3-yl)-6,7-dihydropyrrolo[3,4-f]isoindole-1,3(2H,5H)-dione], more than 0.1 µM. On the same count and under the same terms, as for `C[C@@H]1Cc2c([nH]c3ccccc23)[C@@H](c2c(F)cc(N3CCC4(CCN(C(=O)CN5Cc6cc7c(cc6C5)C(=O)N(C5CCC(=O)NC5=O)C7=O)CC4)CC3)cc2F)N1CC(F)(F)F` (stereo partly drawn) [E 226, 6-(2-(9-(3,5-difluoro-4-((1R,3R)-3-methyl-2-(2,2,2-trifluoroethyl)-2,3,4,9-tetrahydro-1H-pyrido[3,4-b]indol-1-yl)phenyl)-3,9-diazaspiro[5.5]undecan-3-yl)-2-oxoethyl)-2-(2,6-dioxopiperidin-3-yl)-6,7-dihydropyrrolo[3,4-f]isoindole-1,3(2H,5H)-dione], the figure is 0.01 to 0.1 µM; as for `O=C1CCC(N2C(=O)c3cc4c(cc3C2=O)CN(CC2CCN(C(=O)C3CN(c5ccc([C@@H]6c7ccc(O)cc7CC[C@@H]6c6ccccc6)cc5)C3)CC2)C4)C(=O)N1` (mixture of isomers) [E 156, Rac-2-(2,6-dioxopiperidin-3-yl)-6-((1-(1-(4-((1R,2S)-6-hydroxy-2-phenyl-1,2,3,4-tetrahydronaphthalen-1-yl)phenyl)azetidine-3-carbonyl)piperidin-4-yl)methyl)-6,7-dihydropyrrolo[3,4-f]isoindole-1,3(2H,5H)-dione], 0.01 to 0.1 µM.

The assay is the same for the next values; noted with them: compounds 16 hours, Table A does not say whether T47D or MCF7, read-out: Potency (DC50).
In the case of `C[C@@H]1Cc2c([nH]c3ccccc23)[C@@H](c2cnc(N3CC4(CCC(CN5Cc6cc7c(cc6C5)C(=O)N(C5CCC(=O)NC5=O)C7=O)CC4)C3)nc2)N1CC(F)(F)CO` (stereo partly drawn) [E 513, 6-((2-(5-((1R,3R)-2-(2,2-difluoro-3-hydroxypropyl)-3-methyl-2,3,4,9-tetrahydro-1H-pyrido[3,4-b]indol-1-yl)pyrimidin-2-yl)-2-azaspiro[3.5]nonan-7-yl)methyl)-2-(2,6-dioxopiperidin-3-yl)-6,7-dihydropyrrolo[3,4-f]isoindole-1,3(2H,5H)-dione], the 50% degradation concentration (DC50) was 0.01 to 0.1 µM. Still for that read-out and setting: as for `C[C@@H]1Cc2cc(O)ccc2[C@@H](c2ccc(C(=O)N3CC4(CCN(C(=O)CN5Cc6cc7c(cc6C5)C(=O)N(C5CCC(=O)NC5=O)C7=O)CC4)C3)cc2)N1CC(F)F` (stereo partly drawn) [E 459, 6-(2-(2-(4-((1R,3R)-2-(2,2-difluoroethyl)-6-hydroxy-3-methyl-1,2,3,4-tetrahydroisoquinolin-1-yl)benzoyl)-2,7-diazaspiro[3.5]nonan-7-yl)-2-oxoethyl)-2-(2,6-dioxopiperidin-3-yl)-6,7-dihydropyrrolo[3,4-f]isoindole-1,3(2H,5H)-dione], the figure is less than 0.01 µM.

The record behind these values is patent US20240190880A1 (THE REGENTS OF THE UNIVERSITY OF MICHIGAN, priority 2021, published 2024).
